According to PubChem BioAssay AID1645866 (Buhrlage Lab, Dana-Farber Cancer Institute and Novartis …, 2021):
The source made the active and inactive calls.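 The calls were made as follows: active = in confirmatory dose-response testing, peak deubiquitinase inhibition of 30% or more; inactive = the rest.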

biological target: Ubiquitin carboxyl-terminal hydrolase 28 (Homo sapiens) (UniProt Q96RU2); assay: Concentration-response biochemical assay confirming initial hits as inhibitors of ubiquitin-specific protease 28 (AID 1645866); conditions: purified USP28, ubiquitin-rhodamine fluorescence, 30 min
Sequence (Q96RU2 whole entry, looked up): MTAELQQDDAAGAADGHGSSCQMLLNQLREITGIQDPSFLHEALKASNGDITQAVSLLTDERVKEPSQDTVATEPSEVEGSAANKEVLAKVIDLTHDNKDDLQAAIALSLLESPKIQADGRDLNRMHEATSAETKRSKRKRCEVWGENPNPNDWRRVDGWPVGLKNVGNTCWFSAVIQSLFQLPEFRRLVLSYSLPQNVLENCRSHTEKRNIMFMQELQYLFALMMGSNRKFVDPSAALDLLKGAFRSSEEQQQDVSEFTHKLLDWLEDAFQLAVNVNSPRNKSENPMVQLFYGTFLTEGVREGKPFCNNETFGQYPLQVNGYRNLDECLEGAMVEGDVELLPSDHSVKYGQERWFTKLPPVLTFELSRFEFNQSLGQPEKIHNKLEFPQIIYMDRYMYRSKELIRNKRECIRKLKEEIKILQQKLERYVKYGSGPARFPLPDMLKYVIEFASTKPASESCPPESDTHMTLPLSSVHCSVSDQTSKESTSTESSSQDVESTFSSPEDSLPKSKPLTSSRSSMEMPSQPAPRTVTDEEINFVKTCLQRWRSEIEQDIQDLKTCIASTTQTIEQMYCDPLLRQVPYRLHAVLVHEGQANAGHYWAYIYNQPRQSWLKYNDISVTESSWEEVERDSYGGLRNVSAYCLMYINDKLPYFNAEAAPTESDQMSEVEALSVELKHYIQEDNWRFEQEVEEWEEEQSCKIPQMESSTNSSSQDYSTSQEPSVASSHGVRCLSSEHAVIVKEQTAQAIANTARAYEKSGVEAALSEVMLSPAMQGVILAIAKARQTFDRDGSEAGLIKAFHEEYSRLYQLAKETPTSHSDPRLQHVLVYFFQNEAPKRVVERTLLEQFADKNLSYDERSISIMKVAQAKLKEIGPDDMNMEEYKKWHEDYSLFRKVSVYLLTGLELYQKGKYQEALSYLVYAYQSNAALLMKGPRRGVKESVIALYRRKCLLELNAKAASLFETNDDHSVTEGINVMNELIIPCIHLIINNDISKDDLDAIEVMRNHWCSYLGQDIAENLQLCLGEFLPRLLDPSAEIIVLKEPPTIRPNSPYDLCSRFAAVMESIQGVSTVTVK

Compound	IC50
COc1cc([C@@H]2c3cc4c(cc3C[C@@H]3COC(=O)[C@H]32)OCO4)cc(OC)c1OC	18.7 µM
c1ccc(-c2nc(-c3nnn(-c4ccccc4)c3-c3ccncc3)no2)cc1	12.5 µM
N#Cc1c(-c2cccs2)cc(-c2cccs2)[nH]c1=O	> 50 µM (inactive)
CC1CC(=O)N(Cc2ccc([N+](=O)[O-])cc2)c2ccccc2S1 (centres undefined)	13.3 µM
COc1ccc(C(C(=O)NCc2ccccc2)N(C(=O)CCN2CCc3ccccc32)c2ccc(C)c(C)c2)cc1 (centres undefined)	> 50 µM (inactive)
Cc1ccccc1NC(=O)Nc1ccccc1OCc1cc(=O)n2cccc(C)c2n1	1.04 µM
Cc1cc(=O)oc2cc(OCC(=O)Nc3cc(Cl)ccc3N3CCOCC3)ccc12	41.2 µM
O=C(/C=C/c1ccc(F)cc1)Nc1ccc2c(c1)OCCO2	2.47 µM
Cc1cccc(-n2nc(C)c3c2NC(=O)CC3C(=O)c2cc3ccccc3o2)c1 (centres undefined)	25.3 µM
O=C(COc1nc2ccccc2nc1N1CCOCC1)NC(c1ccccc1)c1ccccc1	> 50 µM (inactive)
COc1ncccc1CN1CCn2c(Cn3cncn3)cnc2C1C (centres undefined)	> 50 µM (inactive)
CCN(CC)C(=O)CN1CCCC(c2ncncc2-c2cc(C)no2)C1 (centres undefined)	> 50 µM (inactive)
COc1cc(=O)c(C(=O)Nc2ccc(C#N)cc2)nn1-c1cccc(F)c1	20.7 µM
COc1ccc(-c2ccnc(-c3ccc(OCc4cccc(F)c4)cc3)n2)cc1	> 50 µM (inactive)
Cc1cc(C(F)(F)F)n2nc(C3CCN(C(=O)c4cnn(C)c4C)C3)cc2n1 (centres undefined)	> 50 µM (inactive)
CN(C)c1ccc(CCN2CCc3nc4cccnc4cc3C2)cc1	> 50 µM (inactive)
CCC(C)c1ccc(-c2csc(Cn3c(CN4CCN(C)CC4)nc4ccccc4c3=O)n2)cc1 (centres undefined)	15.3 µM
COc1cc2c(cc1NC(=O)c1ccc(-n3cnnn3)cc1)oc1ccccc12	1.33 µM
FC(F)(F)c1ccccc1CCN1CCc2nc3ncc(Cl)cc3cc2C1	> 50 µM (inactive)
Cc1ccc(NC(=O)CSc2nc3c(cc2C#N)C(=O)CCC3)cc1	21 µM
CCCc1cc(=O)oc2cc(OCC(=O)NCc3ccc(OC)cc3)ccc12	16.6 µM
CCOC(=O)c1ccc(NC(=O)Cn2c(=O)n(CC(=O)NCCc3ccc(OC)c(OC)c3)c(=O)c3sccc32)cc1	1.96 µM
O=C(CCc1nnc2n(Cc3ccccc3)c(=O)c3ccccc3n12)N1CCN(c2ccccn2)CC1	2.98 µM
O=C(c1ccc2cc[nH]c2c1)N1CCC(Nc2cccnc2)C1 (centres undefined)	> 50 µM (inactive)
CC(CCc1ccccc1)NC(=O)C(=O)c1cn(CC(=O)N2CCOCC2)c2ccccc12 (centres undefined)	> 50 µM (inactive)

Compound	IC50
CCc1nc(-c2cc(C(=O)N3CCOCC3)c3ccccn23)cs1	> 50 µM (inactive)
CCOC(=O)c1ccc(-n2c(=O)c(C#N)cc3c(=O)n4ccccc4nc32)cc1	> 50 µM (inactive)
O=C1CC(O)C(C2=CC(=O)c3c(O)cccc3C2=O)O1 (centres undefined)	1.91 µM
CNc1nc2c(c(=O)n1C)CN(C(=O)Nc1cccc3ccccc13)CC2	> 50 µM (inactive)
Cc1ccc2c(c1)N=C(c1ccc([N+](=O)[O-])cc1)CO2	> 50 µM (inactive)
N#Cc1ccccc1Cn1c(=O)n(CCCCC(=O)NCc2ccco2)c(=O)c2ccccc21	36.6 µM
Cc1nc2cccnc2n1C1CCN(C(=O)c2cc3cc(Cl)ccc3[nH]2)C1 (centres undefined)	25.3 µM
O=C(Cn1c(=O)n(Cc2ccc(F)cc2)c(=O)c2ncccc21)Nc1ccccc1	29.5 µM
COc1ccc2nc(NC(=O)C(CC(C)C)NS(=O)(=O)c3ccc4c(c3)CCN4C(C)=O)sc2c1 (centres undefined)	26 µM
CCc1nc(N2CCCC2=O)sc1C(=O)Nc1cccc(C(C)=O)c1	17.1 µM
O=C(CN1CCCCC1)Nc1nnc(-c2ccc([N+](=O)[O-])cc2)s1	14 µM
COc1ccc(CNC(=O)c2[nH]nc3c2CCc2ccccc2-3)cc1	36.1 µM
COc1cccc(NC(=O)Nc2ccc(NC(C)=O)cc2)c1	4.04 µM
Cc1cc(C(=O)Nc2ccc3nc(N4CCN(c5ncccn5)CC4)cc(C)c3c2)ccc1[N+](=O)[O-]	14.2 µM
O=S(=O)(c1ccccc1)N1CCN2Cc3ccccc3N(Cc3ccccc3)CC2C1 (centres undefined)	> 50 µM (inactive)
O=C(CSc1nncc2ccccc12)Nc1ccc2c(c1)OCO2	37.5 µM
Cc1ccc(-c2cnc(C3CC3)o2)cc1S(=O)(=O)Nc1ccc(F)c(Cl)c1	32.5 µM
COc1ccc(NC(=O)c2ccc(Nc3nnc(C)c4ccccc34)cc2)cc1	22.5 µM
COc1ccc(-c2cnnn2-c2ccc(NC(=O)c3c(F)cccc3F)cc2)cc1OC	> 50 µM (inactive)
COc1ccc(S(=O)(=O)N2CCc3ccccc32)cc1C(=O)Nc1ccc2[nH]c(=O)[nH]c2c1	9.13 µM
Cc1ccc(C)c(-n2c(N)c(C(=O)NCCc3ccccc3)c3nc4ccccc4nc32)c1	> 50 µM (inactive)
Oc1cc(OCc2cccc(C(F)(F)F)c2)ccc1-c1ccn[nH]1	3.84 µM
O=C(Nc1ccccc1)c1cn2c3c(cccc3c1=O)CC2	31.9 µM
CCCCNC(=O)c1cc2cccnc2n(Cc2ccccc2)c1=O	> 50 µM (inactive)
O=C(/C=C/c1ccc2c(c1)OCO2)Nc1nc2c(s1)COCC2	27.5 µM

Compound	IC50
CCc1ccc(NC(=O)COC(=O)c2n[nH]c3ccccc23)cc1	12 µM
COc1ccc(C(=O)N2CCCC3(C2)Nc2cccnc2NC3=NC2CCCC2)cn1 (centres undefined)	> 50 µM (inactive)
Cn1c(SCc2ccccc2)nnc1-c1csc(-c2ccccc2)n1	31.3 µM
COc1ccc(C2C(C(=O)C(C)(C)C)N3c4ccccc4C=CC3C23C(=O)c2ccccc2C3=O)c(OC)c1 (centres undefined)	> 50 µM (inactive)
COc1ccc(C(=O)CSc2ccc3nnc(CCNC(=O)c4ccc(OC)cc4)n3n2)cc1	> 50 µM (inactive)
Cc1c(C(=O)Nc2ccc(-c3nnc4n3CCCCC4)cc2)oc2c1ccc1ccccc12	4.09 µM
CS(=O)(=O)N1CCc2cc(C(=O)Nc3ccc(Cc4ccncc4)cc3)ccc21	8.75 µM
COc1cccc(NC(=O)Cc2sc(Nc3cc(C)cc(C)c3)nc2O)c1	18.1 µM
CCN(CCCNC(=O)c1ccc(Cn2c(=O)[nH]c3ccccc3c2=O)cc1)c1ccccc1	13.6 µM
COC(=O)c1ccc(Cn2cnc3ccc(Br)cc3c2=O)o1	2.07 µM
COC1=CC(=O)c2c(O)c3c(c(C)c2C1=O)C[C@@]1(O)[C@H](O[C@H]2CC[C@H](O[C@H]4C[C@@](C)(O)[C@H](OC(=O)c5c(C)ccc(C)c5O)[C@H](C)O4)[C@@H](C)O2)C(=O)C(C(C)=O)=C(O)[C@@]1(O)C3=O	2.27 µM
CCOc1ccc(NC(=O)Cn2cnc(S(=O)(=O)N3CCc4ccccc43)c2)cc1	27.6 µM
CC1=C(c2ccc(F)cc2)S(=O)(=O)N=C1Nc1ccc(Cl)cc1	28.1 µM
CC(C)Cc1nc2oc3c(N(C)CCO)ncnc3c2c2c1CCC2	> 50 µM (inactive)
CCC1=C(c2ccc(C)cc2)S(=O)(=O)NC1=NCC(=O)NC(C)c1ccccc1 (centres undefined)	19.5 µM
Cn1cc(NC(=O)Nc2cccc3ccccc23)c2ccccc21	16.5 µM
O=C(COC(=O)c1ccc(NS(=O)(=O)c2ccc3c(c2)OCCO3)cc1)NCc1ccc(Cl)cc1	6.76 µM
O=C1/C(=C/c2cn(-c3ccccc3)nc2-c2ccc3c(c2)OCCO3)Cc2ccccc21	> 50 µM (inactive)
Nc1ccccc1SCc1noc(-c2cccs2)n1	6.61 µM
COc1cccc(N2C(=O)N(CC(=O)NCc3ccc(Cl)cc3)c3ccccc3S2(=O)=O)c1	19.1 µM
CCCC(=O)N1CCC2(CC1)Nc1ccccc1NC2=O	> 50 µM (inactive)
CC(=O)O[C@H]1[C@]2(O)C[C@]34SS[C@](CO)(C(=O)N3[C@@H]2C[C@@]12O[C@@H](C)C(C)(C)C2=O)N(C)C4=O	> 50 µM (inactive)
Cc1ccc(CNC(=O)c2ccc(N3C(=O)[C@@H]4Cc5ccccc5CN4C3=O)cc2)cc1	29.7 µM
c1ccc(-n2nnc(-c3noc(-c4cccnc4)n3)c2-c2ccncc2)cc1	21 µM
Cc1sc(NC(=O)CN2CCc3ccccc3C2)nc1-c1ccc2c(c1)CCN2C(=O)C1CCCCC1	> 50 µM (inactive)

Compound	IC50
O=[N+]([O-])c1cccc(CSc2nnc(/C=C/c3ccccc3)o2)c1	> 50 µM (inactive)
Fc1ccccc1Cc1nc(-c2ccc3nncn3c2)no1	9.69 µM
CC(C)Oc1ccc(C(=O)Nc2cccc(S(=O)(=O)N3CCCC3)c2)cc1	10.7 µM
COc1ccc(-n2nnc(C(=O)Nc3ccccc3)c2N)cc1	> 50 µM (inactive)
CN(C)c1ccc(C2CC(c3c(O)n(C)c(=O)[nH]c3=O)=Nc3ccccc3S2)cc1 (centres undefined)	2.12 µM
O=S(=O)(c1cccc2cccnc12)N(CCc1ccccc1)C1CCN(CCc2ccc(Cl)cc2)CC1	> 50 µM (inactive)
COc1ccc(Cl)cc1-n1nnc(C(=O)N2CCc3ccccc3C2)c1C	> 50 µM (inactive)
CCOC(=O)N1CCN(S(=O)(=O)c2ccc(C(=O)Nc3ccc(Br)cc3)cc2)CC1	18.3 µM
O=C1c2ccccc2NC2(C(=O)Nc3ccc(Br)cc32)N1c1ccccc1 (centres undefined)	3.31 µM
COc1ccccc1NC(=O)c1cc2c(C)nn(Cc3ccccc3)c2s1	38.1 µM
O=C(NCc1ccc(F)cc1)C1CCN(c2cnc(N3CCCCC3)nc2)CC1	0.695 µM
O=C(CC1Oc2ccccc2NC1=O)Nc1ccccc1Br (centres undefined)	38 µM
CN(CCc1ccccc1)c1nccc(N2CCN(C(=O)c3csc(-c4cccnc4)n3)CC2)n1	> 50 µM (inactive)
COc1ccc(NC(=O)CNC(=O)c2ccc3nc(-n4cccc4)sc3c2)cc1	3.11 µM
O=C(Nc1cccc(-c2noc(C3CCC3)n2)c1)C1CC(=O)N(c2ccccc2)C1 (centres undefined)	18.8 µM
CCc1cc(=O)n(CC(=O)Nc2cc(C)ccc2OC)c(N2CCOCC2)n1	26.2 µM
Cc1c(C)n(-c2ccccc2)c2ncn(CC(=O)NCCCc3ccccc3)c(=O)c12	23.1 µM
Cc1ccc(NC(=O)CCC(=O)Nc2ccc3nc(N4CCCCC4)cc(C)c3c2)c(Br)c1	22.7 µM
Cc1cc(C)n(-c2cccc(C(=O)Nc3ccc4c(c3)CCN4S(C)(=O)=O)c2)n1	3.69 µM
COc1ccc(C)cc1NC(=O)C1CC(=O)Nc2nc(SCc3ccccc3)nn21 (centres undefined)	14.7 µM
Cn1nc(-c2nc(-c3ccccc3)no2)c2c1CCN(C(=O)C1CC1)C2	> 50 µM (inactive)
O=[N+]([O-])c1ccc(NCc2ccc(-c3cccs3)s2)nc1	2.19 µM
COc1ccc(NC(=O)C2CCCN(S(=O)(=O)N3CCCCCC3)C2)cc1 (centres undefined)	21.8 µM
Cc1ccccc1NC(=O)c1cc(S(=O)(=O)N2CCCCCC2)ccc1Cl	25.6 µM
